Data as given in ChEMBL document CHEMBL1156621, “Synthesis and cellular effects of cycloterpenals: cyclohexadienal-based activators of neurite outgrowth” (2008).
Converted amounts (≈) assume the structure as drawn.

Legend:
Assay type in all cases: functional
[1] = tested on: Saccharomyces cerevisiae; assay: Antifungal activity against Saccharomyces cerevisiae after 16 hrs
[2] = tested on: Escherichia coli; assay: Antibacterial activity against Escherichia coli after 16 hrs
[3] = tested on: Bacillus subtilis; assay: Antibacterial activity against Bacillus subtilis after 16 hrs

SMILES | MIC [1] [µg/mL] | MIC [2] [µg/mL] | MIC [3] [µg/mL]
CN(C)c1ccc(-c2cc(-c3ccc4c(c3)Cc3ccccc3-4)ccc2C=O)cc1 | > 100 | > 100 | > 100
CN(C)c1ccc(C2CC(c3ccc(-c4ccccc4)cc3)=CC=C2C=O)cc1 (stereo unspecified) | > 100 | > 100 | > 100
Cc1ccc(C2=CC=C(C=O)C(C)(C)C2)o1 | > 100 | > 100 | > 100
CC1=C(/C=C/C(C)=C/C=C/c2ccc(C=O)c(-c3ccccc3)c2)C(C)(C)CCC1 | > 100 | > 100 | > 100
O=CC1=CC=C(c2ccc3c(c2)Cc2ccccc2-3)CC1c1ccccc1 (stereo unspecified) | > 100 | > 100 | > 100
CC1=C(/C=C/C(C)=C/C=C/C2=CC=C(C=O)CC2)C(C)(C)CCC1 | > 100 | > 100 | > 100
Cc1ccc(-c2ccc(C=O)c(-c3ccc([N+](=O)[O-])cc3)c2)o1 | > 100 | > 100 | > 100
CC(C)=CCCC1=CC=C(C=O)C(C)C1 (stereo unspecified) | > 100 | > 100 | > 100
Cc1ccc(C2=CC=C(C=O)C(c3ccc(N(C)C)cc3)C2)o1 (stereo unspecified) | > 100 | > 100 | > 100
CC(C)=CCCc1ccc(C=O)c(-c2ccccc2)c1 | > 100 | > 100 | > 100
CC(C)=CCC/C(C)=C/CCC1=CC=C(C=O)C(C)(CC/C=C(\C)CCC=C(C)C)C1 (stereo unspecified) | > 100 | > 100 | > 100
Cc1ccc(C2=CC=C(C=O)C(c3ccccc3)C2)o1 (stereo unspecified) | > 100 | > 100 | > 100
Cc1ccc(C=O)c(-c2ccccc2)c1 | > 100 | > 100 | > 100
O=Cc1ccc(-c2ccccc2)cc1-c1ccc([N+](=O)[O-])cc1 | > 100 | > 100 | > 100
CCCCCCC1=CC=C(C=O)C(C)(CCCCCC)C1 (stereo unspecified) | > 100 | > 100 | > 100
CC1C(c2cccs2)=CC=C(C=O)C1c1ccc([N+](=O)[O-])cc1 (stereo unspecified) | > 100 | > 100 | > 100
CC1=CC=C(C=O)C(c2ccccc2)C1 (stereo unspecified) | > 100 | > 100 | > 100
O=CC1=CC=C(c2ccc3ccccc3c2)CC1c1ccccc1 (stereo unspecified) | > 100 | > 100 | > 100
CN(C)c1ccc(-c2cc(-c3ccccc3)ccc2C=O)cc1 | > 100 | > 100 | > 100

SMILES | MIC [1] [µg/mL] | MIC [2] [µg/mL] | MIC [3] [µg/mL]
CC(C)=CCC/C(C)=C/C[C@H]1C(C)=CC=C(C=O)[C@H]1c1ccc(N(C)C)cc1 | > 100 | > 100 | > 100
O=CC1=CC=C(c2ccc(-c3ccccc3)cc2)CC1 | > 100 | > 100 | > 100
CC1=C(/C=C/C(C)=C/C=C/C2=CC=C(C=O)C(C)(/C=C/C=C(C)/C=C/C3=C(C)CCCC3(C)C)C2)C(C)(C)CCC1 (stereo unspecified) | > 100 | > 100 | > 100
CC1(c2cccs2)CC(c2cccs2)=CC=C1C=O (stereo unspecified) | > 100 | > 100 | > 100
CC1(c2ccc(-c3ccccc3)cc2)CC(c2ccc(-c3ccccc3)cc2)=CC=C1C=O (stereo unspecified) | > 100 | > 100 | > 100
CC(C)=CCC/C(C)=C/CCC1=CC=C(C=O)C(c2ccccc2)C1 (stereo unspecified) | > 100 | > 100 | > 100
CN(C)c1ccc(-c2cc(-c3ccc4ccccc4c3)ccc2C=O)cc1 | > 100 | > 100 | > 100
CC(C)=CCC/C(C)=C/C[C@H]1C(C)=CC=C(C=O)[C@H]1c1ccc([N+](=O)[O-])cc1 | > 100 | > 100 | > 100
Cc1ccc(C=O)c(-c2ccc(N(C)C)cc2)c1 | > 100 | > 100 | 10 (≈ 41.8 µM)
CC1=C(/C=C/C2=CC=C(C=O)C(C)(/C=C/C3=C(C)CCCC3(C)C)C2)C(C)(C)CCC1 (stereo unspecified) | > 100 | > 100 | > 100
CC1CC(c2ccc3ccccc3c2)=CC=C1C=O (stereo unspecified) | > 100 | > 100 | > 100
O=CC1=CC=C(c2ccccc2)CC1c1ccccc1 (stereo unspecified) | > 100 | > 100 | > 100
CC(C)=CC[C@@H]1C(C)=CC=C(C=O)[C@H]1c1ccccc1 | > 100 | > 100 | > 100
O=CC1=CC=C(c2ccc(Cl)s2)CC1c1ccccc1 (stereo unspecified) | > 100 | > 100 | > 100
CC(C)=CCCC1=CC=C(C=O)C(c2ccccc2)C1 (stereo unspecified) | > 100 | > 100 | > 100
CC(C)=CCCC1=CC=C(C=O)C(c2ccc(N(C)C)cc2)C1 (stereo unspecified) | > 100 | > 100 | > 100
CC1=C(/C=C/C(C)=C/C=C/C2=CC=C(C=O)C(c3ccccc3)C2)C(C)(C)CCC1 (stereo unspecified) | > 100 | > 100 | > 100
CC(C)=CCC/C(C)=C/C[C@H]1C(C)=CC=C(C=O)[C@H]1c1ccccc1 | > 100 | > 100 | > 100
